The results in this text go back to ChEMBL document CHEMBL5131473, “One-pot synthesis of oxoaporphines as potent antitumor agents and investigation of their mechanisms of actions” (Eur J Med Chem, 2022).

Data set [1] concerns T-24. In words: Induction of apoptosis in human T24 cells assessed as necrotic cells at 15 uM incubated for 24 hrs by Annexin-V/PI staining based flow cytometry analysis (reference value: 1.92 %). Type of data set: functional.
For data set [2], the system named is T-24. In words: Inhibition of cell migration in human T24 cells assessed as recovery of wound area at 5 uM measured after 24 hrs by wound healing assay based fluorescence microscopy. The arrangement: scale not given: the % may be the effect or the level left. Type of data set: functional.
Data set [3] has as its system T-24. The data set can be described thus: Induction of apoptosis in human T24 cells assessed as viable cells at 15 uM incubated for 24 hrs by Annexin-V/PI staining based flow cytometry analysis (reference value: 94.3 %). Type of data set: functional. The following applies: read-out: Activity. In general terms: In flow cytometry, cells or beads pass a laser one at a time.

Data set [4] relates to T-24. The data set can be described thus: Induction of apoptosis in human T24 cells assessed as increase in caspase 9 activity at 15 uM (Rvb= 7.2%). Type of data set: functional.
The test system of data set [5] is T-24. In words: Induction of cell cycle arrest in human T24 cells assessed as accumulation of cells at G2/M phase at 10 uM incubated for 24 hrs by propidium iodide/RNase A staining based flow cytometry analysis (reference value: 5.82 %). Type of data set: functional.
Data set [6] has as its system T-24. The data set can be described thus: Induction of DNA damage in human T24 cells assessed as DNA strand breakage by measuring comet formation at 10 uM incubated for 24 hrs by comet assay. Type of data set: functional, cell-based.
Data set [7] relates to T-24. The data set can be described thus: Cytotoxicity against human T24 cells assessed as decrease in cell viability at 10 uM by MTT assay. Type of data set: functional, cell-based. As to conditions: TDE = time-dependent effect. A general note: Tetrazolium assays rely on reduction of a dye to a coloured formazan, in cell work by metabolically active cells.
The subject of data set [8] is T-24. The data set can be described thus: Induction of apoptosis in human T24 cells assessed as early apoptotic cells at 20 uM incubated for 24 hrs by Annexin-V/PI staining based flow cytometry analysis (reference value: 3.27 %). Type of data set: functional.
Data set [9] deals with T-24. The data set can be described thus: Inhibition of colony formation in human T24 cells at 0.16 uM incubated for 24 hrs and measured for 10 days. Type of data set: functional, cell-based.
Data set [10] has as its system T-24. In words: Induction of DNA damage in human T24 cells assessed as DNA strand breakage by measuring comet formation at 2 uM incubated for 24 hrs by comet assay. Type of data set: functional, cell-based.
Data set [11] concerns T-24. In words: Inhibition of colony formation in human T24 cells at 0.08 uM incubated for 24 hrs and measured for 10 days. Type of data set: functional, cell-based.
Data set [12] relates to T-24. The data set can be described thus: Induction of cell cycle arrest in human T24 cells assessed as accumulation of cells at G1 phase at 2 uM incubated for 24 hrs by propidium iodide/RNase A staining based flow cytometry analysis (reference value: 51.71 %). Type of data set: functional.
The subject of data set [13] is T-24. In words: Induction of cell cycle arrest in human T24 cells assessed as accumulation of cells at G2/M phase at 2 uM incubated for 24 hrs by propidium iodide/RNase A staining based flow cytometry analysis (reference value: 5.82 %). Type of data set: functional.
Data set [14] deals with T-24. In words: Induction of mitochondrial mediated apoptosis in human T24 cells assessed as upregulation of apaf-1 expression at 2 to 4 uM incubated for 24 hrs by Western blotting analysis. Type of data set: functional, cell-based. The following applies: dose 2-4 µM. Background: In western blotting, separated proteins are transferred to a membrane and probed.
For data set [15], the system named is T-24. In words: Induction of Ca2+ production in human T24 cells assessed as increase in intracellular Ca2+ concentration at 2 uM by Fluo3-AM staining based fluorescence microscopic method. Type of data set: functional, cell-based.
Data set [16] has as its system T-24. The data set can be described thus: Induction of mitochondrial mediated apoptosis in human T24 cells assessed as increase in Bak protein expression at 2 to 4 uM incubated for 24 hrs by Western blotting analysis. Type of data set: functional, cell-based. As to conditions: dose 2-4 µM.
The subject of data set [17] is T-24. In words: Induction of apoptosis in human T24 cells assessed as early apoptotic cells at 6 uM incubated for 24 hrs by Annexin-V/PI staining based flow cytometry analysis (reference value: 3.27 %). Type of data set: functional.
In data set [18] the test system is T-24. In words: Induction of apoptosis in human T24 cells assessed as condensation of nuclei at 2 uM by Hoechst33258 staining based fluorescence microscopy. Type of data set: functional, cell-based.
Data set [19] concerns T-24. In words: Induction of apoptosis in human T24 cells assessed as late apoptotic cells at 1 uM incubated for 24 hrs by Annexin-V/PI staining based flow cytometry analysis (reference value: 0.543 %). Type of data set: functional.
Data set [20] concerns T-24. In words: Induction of mitochondrial ROS generation in human T24 cells at 0.5 uM measured after 24 hrs by Mitotracker Red dye based confocal microscopy method. Type of data set: functional, cell-based.
Data set [21] has as its system T-24. In words: Induction of mitochondrial mediated apoptosis in human T24 cells assessed as increase in Bak protein expression at 0.5 to 1 uM incubated for 24 hrs by Western blotting analysis. The following applies: dose 0.5-1 µM. Type of data set: functional, cell-based.
In data set [22] the test system is T-24. The data set can be described thus: Induction of mitochondrial membrane potential dysfunction in human T24 cells assessed as nuclear condensation at 0.5 to 1 uM by mito-tracker green dye based fluorescence microscopy. Type of data set: functional, cell-based. The following applies: dose 0.5-1 µM.
Data set [23] concerns T-24. The data set can be described thus: Induction of apoptosis in human T24 cells assessed as condensation of nuclei at 0.5 uM by Hoechst33258 staining based fluorescence microscopy. Type of data set: functional, cell-based.
Data set [24] has as its system T-24. In words: Induction of mitochondrial membrane potential dysfunction in human T24 cells assessed as disappearance of cristae at 0.5 uM incubated for 24 hrs by TEM analysis. Type of data set: functional, cell-based.
The test system of data set [25] is T-24. In words: Induction of mitochondrial mediated apoptosis in human T24 cells assessed as upregulation of cytochrome c expression at 0.5 to 1 uM incubated for 24 hrs by Western blotting analysis. Type of data set: functional, cell-based. The following applies: dose 0.5-1 µM.
In data set [26] the test system is T-24. In words: Induction of DNA damage in human T24 cells assessed as increase in […] p53 expression at 0.5 to 1 uM incubated for 24 hrs by Western blot analysis. Type of data set: functional, cell-based. As to conditions: dose 0.5-1 µM.
For data set [27], the system named is T-24. In words: Inhibition of colony formation in human T24 cells at 0.01 uM incubated for 24 hrs and measured for 10 days. Type of data set: functional, cell-based.
Data set [28] has as its system T-24. The data set can be described thus: Induction of DNA damage in human T24 cells assessed as increase in gamma H2AX phosphorylation at 0.5 uM incubated for 24 hrs by Hoechst33258 staining based immunofluorescence assay. Type of data set: functional, cell-based.
Data set [29] is described as follows: Toxicity in human WI-38 cells assessed as wound closure at 0.25 uM measured after 24 hrs by fluorescence microscopy based wound healing assay. Type of data set: cell-based. As to conditions: wi-38, 24 h.

Molecules are shown by their SMILES. The source made the active and inactive calls. No cut-off for these calls is given here.

For the molecule `O=C1c2ccccc2-c2cccc3ccnc1c23`, the Activity in the data set with T-24 [1] was 2.44%; in the data set with T-24 [2] it was 21.7%; with T-24 [4] it was 26.3%; with T-24 [5] it was 13.69%; in the data set on T-24 [7], “Tde”; in the data set with T-24 [8] it was 36.6%. Further, in the data set with T-24 [3], the viability at 15 µM amounted to 58%. In addition, in the data set with T-24 [6], the result was Active.

In the case of `O=C1c2cc([N+](=O)[O-])ccc2-c2ccc([N+](=O)[O-])c3ccnc1c23`, the inhibition result in the data set with T-24 [9] and with T-24 [11] was “Active” each time. Besides, the outcome with T-24 [10], with T-24 [14], in the data set on T-24 [15], in the data set on T-24 [16] and in the data set with T-24 [18] was Active. Moreover, the values for the Activity with T-24 [12], in the data set on T-24 [13] and in the data set on T-24 [17] were 0.27%, 33.02% and 36.2%, respectively.

Turning to `O=C1c2ccccc2-c2ccc([N+](=O)[O-])c3ccnc1c23`, the figures for the Activity (with T-24 [19]; in data set [29]) were 6.25% and “Non-Toxic”, respectively. Besides, the result with T-24 [20], with T-24 [21], with T-24 [22], in the data set on T-24 [23], in the data set on T-24 [24] and with T-24 [25] was Active. In addition, the outcome in the data set on T-24 [26] and in the data set on T-24 [28] was Active. Moreover, the inhibition result in the data set on T-24 [27] is “Active”.
